Reference: patent US20240317718A1, “SUBSTITUTED HETEROCYCLIC COMPOUNDS” (BRISTOL-MYERS SQUIBB COMPANY, priority 2021, published 2024)

Assays:
[1] = tested on: IFNα-induced pSTAT5 (Tyk2-mediated signal transduction); experiment: IFNα-induced STAT phosphorylation in human whole blood; format: cell-based; conditions: 1 h incubation with compound, 1000 U/mL IFNα A/D for 15 min, CD3 positive population, read-out: Human Whole blood IFNa pSTAT5 IC50
Procedure: IFNα-Induced STAT Phosphorylation in Human Whole Blood
After an hour long incubation with compound, human whole blood (drawn with ACD-A as anticoagulant) was stimulated with 1000 U/mL recombinant human IFNα A/D (R&D Systems 11200-2) for 15 min. The stimulation was stopped by adding Fix/Lyse buffer (BD 558049). Cells were stained with a CD3 FITC antibody (BD 555916), washed, and permeabilized on ice using Perm III buffer (BD 558050). Cells were then stained with an Alexa-Fluor 647 pSTAT5 (pY694) antibody (BD 612599) for 60 min prior to analysis on the iQue Plus. The amount of pSTAT5 expression was quantitated by median fluorescence intensity after gating on the CD3 positive population.

in vitro = conditions: human, Caco-2, pH 7.4

| IC50 [1] [µM] | Papp A→B at 2 h, 3 μM (in vitro) [×10⁻⁶ cm/s] | efflux ratio at 2 h, 3 μM (in vitro) | SMILES |
| --- | --- | --- | --- |
| 0.148 | 18.8 | 2.9 | [2H]C([2H])([2H])NC(=O)c1nnc(NC(=O)C2CC2)cc1Nc1nccc(-c2cnc(C(C)(C)O)cn2)c1OC [Example 20, 6-(cyclopropanecarboxamido)-4-((4-(5-(2-hydroxypropan-2-yl)pyrazin-2-yl)-3-methoxypyridin-2-yl)amino)-N-(methyl-d3)pyridazine-3-carboxamide] |
| 0.385 | 14.1 | 0.7 | [2H]C([2H])([2H])NC(=O)c1nnc(NC(=O)C2CC2)cc1Nc1cccc(-c2csc(C)n2)c1OC [Example 21, 6-cyclopropaneamido-4-{[2-methoxy-3-(2-methyl-1,3-thiazol-4-yl)phenyl]amino}-N-(^2H3)methylpyridazine-3-carboxamide] |
| 0.41 | 32.3 | 0.6 | [2H]C([2H])([2H])NC(=O)c1nnc(NC(=O)C2CC2)cc1Nc1cccc(-c2cnc(OC)cn2)c1OC [Example 22, 6-cyclopropaneamido-4-{[2-methoxy-3-(5-methoxypyrazin-2-yl)phenyl]amino}-N-(^2H3)methylpyridazine-3-carboxamide] |
| 0.243 | 17.4 | 1.4 | [2H]C([2H])([2H])NC(=O)c1nnc(NC(=O)C2CC2)cc1Nc1cccc(-c2cnc(C)cn2)c1OC [Example 23, 6-cyclopropaneamido-4-{[2-methoxy-3-(5-methylpyrazin-2-yl)phenyl]amino}-N-(^2H3)methylpyridazine-3-carboxamide] |
| 0.426 | 14.8 | 1.2 | [2H]C([2H])([2H])NC(=O)c1nnc(NC(=O)C2CC2)cc1Nc1cccc(-c2ccc(C(C)(C)C#N)cn2)c1OC [Example 24, 4-({3-[5-(1-cyano-1-methylethyl)pyridin-2-yl]-2-methoxyphenyl}amino)-6-cyclopropaneamido-N-(^2H3)methylpyridazine-3-carboxamide] |
| 0.201 | 30 | 1 | [2H]C([2H])([2H])NC(=O)c1nnc(NC(=O)C2CC2)cc1Nc1ccc(F)c(-c2cnn(C)c2)c1OC [Example 26, 6-cyclopropaneamido-4-{[4-fluoro-2-methoxy-3-(1-methyl-1H-pyrazol-4-yl)phenyl]amino}-N-(^2H3)methylpyridazine-3-carboxamide] |
| 0.177 | 31.2 | 0.9 | [2H]C([2H])([2H])NC(=O)c1nnc(NC(=O)C2CC2)cc1Nc1cc(F)cc(-c2cnn(C)c2)c1OC [Example 27, 6-cyclopropaneamido-4-{[5-fluoro-2-methoxy-3-(1-methyl-1H-pyrazol-4-yl)phenyl]amino}-N-(^2H3)methylpyridazine-3-carboxamide] |
| 0.425 | 27.4 | 0.7 | [2H]C([2H])([2H])NC(=O)c1nnc(NC(=O)C2CC2)cc1Nc1cccc(-c2cnn(C3CC3)c2)c1OC [Example 28, 6-cyclopropaneamido-4-{[3-(1-cyclopropyl-1H-pyrazol-4-yl)-2-methoxyphenyl]amino}-N-(^2H3)methylpyridazine-3-carboxamide] |
| 0.417 | 31.7 | 0.5 | [2H]C([2H])([2H])NC(=O)c1nnc(NC(=O)C2CC2)cc1Nc1cccc(-c2cnc(C#N)cn2)c1OC [Example 29, 4-{[3-(5-cyanopyrazin-2-yl)-2-methoxyphenyl]amino}-6-cyclopropaneamido-N-(^2H3)methylpyridazine-3-carboxamide] |
| 0.193 | 22.7 | 0.5 | [2H]C([2H])([2H])NC(=O)c1nnc(NC(=O)C2CC2)cc1Nc1nccc(-c2cnn(C3CC3)c2)c1OC [Example 30, 6-cyclopropaneamido-4-{[4-(1-cyclopropyl-1H-pyrazol-4-yl)-3-methoxypyridin-2-yl]amino}-N-(^2H3)methylpyridazine-3-carboxamide] |
| 0.289 | 39.3 | 1 | [2H]C([2H])([2H])NC(=O)c1nnc(NC(=O)C2CC2)cc1Nc1nccc(-c2cn(C)nc2C)c1OC [Example 31, 6-cyclopropaneamido-4-{[4-(1,3-dimethyl-1H-pyrazol-4-yl)-3-methoxypyridin-2-yl]amino}-N-(^2H3)methylpyridazine-3-carboxamide] |
| 0.437 | 31.5 | 0.9 | [2H]C([2H])([2H])NC(=O)c1nnc(NC(=O)C2CC2)cc1Nc1nccc(-c2cnn(C)c2C)c1OC [Example 32, 6-cyclopropaneamido-4-{[4-(1,5-dimethyl-1H-pyrazol-4-yl)-3-methoxypyridin-2-yl]amino}-N-(^2H3)methylpyridazine-3-carboxamide] |
| 0.207 | 38.3 | 0.4 | [2H]C([2H])([2H])NC(=O)c1nnc(NC(=O)C2CC2)cc1Nc1nccc(-c2nccs2)c1OC [Example 33, 6-cyclopropaneamido-4-{[3-methoxy-4-(1,3-thiazol-2-yl)pyridin-2-yl]amino}-N-(^2H3)methylpyridazine-3-carboxamide] |
| 0.474 | 23.3 | 1.1 | [2H]C([2H])([2H])NC(=O)c1nnc(NC(=O)C2CC2)cc1Nc1cccc(-c2ccns2)c1OC [Example 34, 6-cyclopropaneamido-4-{[2-methoxy-3-(1,2-thiazol-5-yl)phenyl]amino}-N-(^2H3)methylpyridazine-3-carboxamide] |
| 0.121 | 42.2 | 0.5 | [2H]C([2H])([2H])NC(=O)c1nnc(NC(=O)C2CC2)cc1Nc1cccc(-c2ccsn2)c1OC [Example 35, 6-cyclopropaneamido-4-{[2-methoxy-3-(1,2-thiazol-3-yl)phenyl]amino}-N-(^2H3)methylpyridazine-3-carboxamide] |
| 0.225 | 20.3 | 0.9 | [2H]C([2H])([2H])NC(=O)c1nnc(NC(=O)C2CC2)cc1Nc1cccc(-c2cnsc2)c1OC [Example 36, 6-cyclopropaneamido-4-{[2-methoxy-3-(1,2-thiazol-4-yl)phenyl]amino}-N-(^2H3)methylpyridazine-3-carboxamide] |
| 0.084 | 35.4 | 0.4 | [2H]C([2H])([2H])NC(=O)c1nnc(NC(=O)C2CC2)cc1Nc1cc(F)cc(-c2cocn2)c1OC [Example 37, 6-cyclopropaneamido-4-{[5-fluoro-2-methoxy-3-(1,3-oxazol-4-yl)phenyl]amino}-N-(^2H3)methylpyridazine-3-carboxamide] |
| 0.381 | 59.5 | 0.5 | [2H]C([2H])([2H])NC(=O)c1nnc(NC(=O)C2CC2)cc1Nc1nccc(-c2cnsc2)c1OC [Example 38, 6-cyclopropaneamido-4-{[3-methoxy-4-(1,2-thiazol-4-yl)pyridin-2-yl]amino}-N-(^2H3)methylpyridazine-3-carboxamide] |
| 0.159 | 46.3 | 0.3 | [2H]C([2H])([2H])NC(=O)c1nnc(NC(=O)C2CC2)cc1Nc1nccc(-c2nc(C)ns2)c1OC [Example 39, 6-cyclopropaneamido-4-{[3-methoxy-4-(3-methyl-1,2,4-thiadiazol-5-yl)pyridin-2-yl]amino}-N-(^2H3)methylpyridazine-3-carboxamide] |
| 0.179 | 12.6 | 0.3 | [2H]C([2H])([2H])NC(=O)c1nnc(NC(=O)[C@@H]2C[C@H]2C)cc1Nc1nccc(-c2nc(C)ns2)c1OC [Example 40, 4-{[3-methoxy-4-(3-methyl-1,2,4-thiadiazol-5-yl)pyridin-2-yl]amino}-N-(^2H3)methyl-6-[(1R,2R)-2-methylcyclopropaneamido]pyridazine-3-carboxamide] |
| 0.175 | 27.7 | 0.4 | [2H]C([2H])([2H])NC(=O)c1nnc(NC(=O)C2CC2)cc1Nc1nccc(-c2ncns2)c1OC [Example 41, 6-cyclopropaneamido-4-{[3-methoxy-4-(1,2,4-thiadiazol-5-yl)pyridin-2-yl]amino}-N-(^2H3)methylpyridazine-3-carboxamide] |
| 0.193 | 26.6 | 0.4 | [2H]C([2H])([2H])NC(=O)c1nnc(NC(=O)C2CC2)cc1Nc1nccc(-c2cnn(C(F)F)c2)c1OC [Example 42, 6-cyclopropaneamido-4-({4-[1-(difluoromethyl)-1H-pyrazol-4-yl]-3-methoxypyridin-2-yl}amino)-N-(^2H3)methylpyridazine-3-carboxamide] |

| SMILES | IC50 [1] [µM] | Papp A→B at 2 h, 3 μM (in vitro) [×10⁻⁶ cm/s] | efflux ratio at 2 h, 3 μM (in vitro) |
| --- | --- | --- | --- |
| [2H]C([2H])([2H])NC(=O)c1nnc(NC(=O)C2CC2)cc1Nc1cccc(-c2noc(C(F)F)n2)c1OC [Example 19, 6-(cyclopropanecarboxamido)-4-((3-(5-(difluoromethyl)-1,2,4-oxadiazol-3-yl)-2-methoxyphenyl)amino)-N-(methyl-d3)pyridazine-3-carboxamide] | 0.069 | 17 | 0.6 |
| [2H]C([2H])([2H])NC(=O)c1nnc(NC(=O)C2CC2)cc1Nc1cccc(-c2noc(CC)n2)c1OC [Example 43, 6-cyclopropaneamido-4-{[3-(5-ethyl-1,2,4-oxadiazol-3-yl)-2-methoxyphenyl]amino}-N-(^2H3)methylpyridazine-3-carboxamide] | 0.443 | 24.2 | 0.8 |
